Read-outs that look alike come from different tables or passages of the source.
How the values were obtained:
[1] = system: Aβ production in Chinese hamster ovary cells that over-express human APP695 with the London and Swedish mutations; test: Cellular Aβ IC50 determination (Aβ40 sandwich ELISA); assay type: cell-based; details: Cricetulus griseus
Procedure, shortened: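 CHO cells overexpressing human APP695 with London and Swedish mutations, seeded at 10% confluency, treated with compounds up to about 4 μM final (0.4% DMSO). Secreted Aβ40 measured by sandwich ELISA relative to control and fitted to a 4-parameter IC50 model.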

memapsin 2 = memapsin 2 (Homo sapiens, UniProt P56817); test: Inhibition of memapsin 2 beta-secretase activity (fluorogenic substrate FS-2); assay type: biochemical; details: memapsin 2, pH 4, 37° C., read-out: M2Ki
Sequence of memapsin 2 (P56817 46-501): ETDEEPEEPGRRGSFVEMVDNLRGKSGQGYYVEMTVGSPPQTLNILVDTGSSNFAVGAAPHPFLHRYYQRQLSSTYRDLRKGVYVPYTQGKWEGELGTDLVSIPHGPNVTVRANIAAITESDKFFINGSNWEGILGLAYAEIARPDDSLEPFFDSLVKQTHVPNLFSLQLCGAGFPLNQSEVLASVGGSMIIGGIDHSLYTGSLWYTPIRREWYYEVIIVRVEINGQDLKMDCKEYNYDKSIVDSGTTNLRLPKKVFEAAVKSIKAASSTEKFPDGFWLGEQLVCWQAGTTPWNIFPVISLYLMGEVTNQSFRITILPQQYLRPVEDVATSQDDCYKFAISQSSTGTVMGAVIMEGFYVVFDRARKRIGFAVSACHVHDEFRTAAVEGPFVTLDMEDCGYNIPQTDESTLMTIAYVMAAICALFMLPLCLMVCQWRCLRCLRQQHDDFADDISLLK
Procedure, shortened: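 Memapsin 2 pre-incubated 20 min with compound at pH 4, 37° C, then FS-2 substrate (MCA-SEVNLDAEFK-DNP, APP Swedish cleavage site) added. Rate of fluorescence increase compared with uninhibited controls, fitted to a tight-binding inhibition model.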

[2] = cellular Aβ production, read-out: IC50

Row | Structure (SMILES) | IC50 [1, 2] [nM] | Ki (memapsin 2; fluorogenic substrate FS-2) [nM] | Ki (memapsin 2; 20 minutes pre-incubation) [nM] | IC50 [1] [nM]
1 | Cc1csc(CN(C)C(=O)c2cccc(C(=O)N[C@@H](Cc3ccccc3)[C@H](O)CNCc3cncc(C#N)c3)c2)n1 [Compound 171, N1-((2S,3R)-4-((5-cyanopyridin-3-yl)methylamino)-3-hydroxy-1-phenylbutan-2-yl)-N3-methyl-N3-((4-methylthiazol-2-yl)methyl)isophthalamide] | 1000 to 5000 | – | 301 to 500 | –
2 | COP(=O)(OC)Oc1cc(CNC[C@@H](O)[C@H](Cc2ccccc2)NC(=O)c2cccc(C(=O)N(C)Cc3nc(C)cs3)c2)cc(C(C)C)c1 [Compound 255, 3-(((2R,3S)-2-hydroxy-3-(3-(methyl((4-methylthiazol-2-yl)methyl)carbamoyl)benzamido)-4-phenylbutylamino)methyl)-5-isopropylphenyl dimethyl phosphate] | – | < 300 | – | < 1000
3 | COc1cccc(CNC[C@@H](O)[C@H](Cc2ccccc2)NC(=O)c2cc(C(=O)NCCO)cc(C(=O)N(C)Cc3nc(C)cs3)c2)c1 [Compound 44, N1-((2S,3R)-3-hydroxy-4-(3-methoxybenzylamino)-1-phenylbutan-2-yl)-N3-(2-hydroxyethyl)-N5-methyl-N5-((4-methylthiazol-2-yl)methyl)benzene-1,3,5-tricarboxamide] | < 1000 | – | < 300 | –
4 | Cc1csc(CN(C)C(=O)c2cc(C(=O)N[C@@H](Cc3ccccc3)[C@H](O)CNCc3cncc(C(C)C)c3)cc(N3CCC(O)C3)c2)n1 (stereo partly drawn) [Compound 242, N1-((2S,3R)-3-hydroxy-4-((5-isopropylpyridin-3-yl)methylamino)-1-phenylbutan-2-yl)-5-(3-hydroxypyrrolidin-1-yl)-N3-methyl-N3-((4-methylthiazol-2-yl)methyl)isophthalamide] | < 1000 | < 300 | – | –
5 | COc1cccc(CNC[C@@H](O)[C@H](Cc2ccccc2)NC(=O)c2cc(C(=O)N(C)Cc3nc(C)cs3)cc(N3CCCCC3)c2)c1 [Compound 230, N1-((2S,3R)-3-hydroxy-4-(3-methoxybenzylamino)-1-phenylbutan-2-yl)-N3-methyl-N3-((4-methylthiazol-2-yl)methyl)-5-(piperidin-1-yl)isophthalamide] | < 1000 | < 300 | – | –
6 | Cc1csc(CN(C)C(=O)c2cc(CO)cc(C(=O)N[C@@H](Cc3ccccc3)[C@H](O)CNCc3cncc(C(C)C)c3)c2)n1 [Compound 192, N1-((2S,3R)-3-hydroxy-4-((5-isopropylpyridin-3-yl)methylamino)-1-phenylbutan-2-yl)-5-(hydroxymethyl)-N3-methyl-N3-((4-methylthiazol-2-yl)methyl)isophthalamide] | < 1000 | – | < 300 | –
7 | COc1cc(C(=O)N[C@@H](Cc2ccccc2)[C@H](O)CNCc2ccnc(C(C)C)c2)cc(C(=O)N(C)Cc2nc(C)cs2)c1 [Compound 53, N1-((2S,3R)-3-hydroxy-4-((2-isopropylpyridin-4-yl)methylamino)-1-phenylbutan-2-yl)-5-methoxy-N3-methyl-N3-((4-methylthiazol-2-yl)methyl)isophthalamide] | < 1000 | – | < 300 | –
8 | COc1cccc(CNC[C@@H](O)[C@H](Cc2ccccc2)NC(=O)c2cc(C(=O)N(C)Cc3nc(C)cs3)cc(-c3ccccc3OC)c2)c1 [Compound 210, N3-((2S,3R)-3-hydroxy-4-(3-methoxybenzylamino)-1-phenylbutan-2-yl)-2′-methoxy-N5-methyl-N5-((4-methylthiazol-2-yl)methyl)biphenyl-3,5-dicarboxamide] | < 1000 | < 300 | – | –
9 | Cc1csc(CN(C)C(=O)c2cccc(C(=O)N[C@@H](Cc3ccccc3)[C@H](O)CNCc3cc(C(C)C)nc(C(C)C)c3)c2)n1 [Compound 106, N1-((2S,3R)-4-((2,6-diisopropylpyridin-4-yl)methylamino)-3-hydroxy-1-phenylbutan-2-yl)-N3-methyl-N3-((4-methylthiazol-2-yl)methyl)isophthalamide] | < 1000 | – | < 300 | –
10 | Cc1csc(CN(C)C(=O)c2cc(C(=O)N[C@@H](Cc3ccccc3)[C@H](O)CNCc3cncc(C(C)C)c3)cc(N3CCCC3=O)c2)n1 [Compound 195, N1-((2S,3R)-3-hydroxy-4-((5-isopropylpyridin-3-yl)methylamino)-1-phenylbutan-2-yl)-N3-methyl-N3-((4-methylthiazol-2-yl)methyl)-5-(2-oxopyrrolidin-1-yl)isophthalamide] | < 1000 | – | < 300 | –
11 | Cc1csc(CN(C)C(=O)c2cc(C(=O)N[C@@H](Cc3ccccc3)[C@H](O)CNCc3cncc(C(C)C)c3)cc(-n3cccc3)c2)n1 [Compound 239, N1-((2S,3R)-3-hydroxy-4-((5-isopropylpyridin-3-yl)methylamino)-1-phenylbutan-2-yl)-N3-methyl-N3-((4-methylthiazol-2-yl)methyl)-5-(1H-pyrrol-1-yl)isophthalamide] | < 1000 | < 300 | – | –

Continued, in another order:

Row | IC50 [1, 2] [nM] | Ki (memapsin 2; fluorogenic substrate FS-2) [nM] | Ki (memapsin 2; 20 minutes pre-incubation) [nM] | Structure (SMILES) | IC50 [1] [nM]
12 | < 1000 | < 300 | – | Cc1csc(CN(C)C(=O)c2cc(C(=O)N[C@@H](Cc3ccccc3)[C@H](O)CNCc3cncc(C(C)C)c3)cc(-c3ncc[nH]3)c2)n1 [Compound 263, N1-((2S,3R)-3-hydroxy-4-((5-isopropylpyridin-3-yl)methylamino)-1-phenylbutan-2-yl)-5-(1H-imidazol-2-yl)-N3-methyl-N3-((4-methylthiazol-2-yl)methyl)isophthalamide] | –
13 | < 1000 | – | < 300 | CCCN(Cc1nc(C)cs1)C(=O)c1cccc(C(=O)N[C@@H](Cc2ccccc2)[C@H](O)CNCc2cccc(OC)c2)c1 [Compound 11, N1-((2S,3R)-3-hydroxy-4-(3-methoxybenzylamino)-1-phenylbutan-2-yl)-N3-((4-methylthiazol-2-yl)methyl)-N3-propylisophthalamide] | –
14 | < 1000 | – | < 300 | Cc1csc(CN(C)C(=O)c2cc(C(=O)N[C@@H](Cc3ccccc3)[C@H](O)CNCc3cc(C(C)C)nc(N)n3)cc(-c3ncco3)c2)n1 [Compound 177, N1-((2S,3R)-4-((2-amino-6-isopropylpyrimidin-4-yl)methylamino)-3-hydroxy-1-phenylbutan-2-yl)-N3-methyl-N3-((4-methylthiazol-2-yl)methyl)-5-(oxazol-2-yl)isophthalamide] | –
15 | < 1000 | < 300 | – | Cc1csc(CN(C)C(=O)c2cccc(C(=O)N[C@@H](Cc3ccccc3)[C@H](O)CNCc3cc(Br)cc(C(F)(F)F)c3)c2)n1 [Compound 265, N1-((2S,3R)-4-(3-bromo-5-(trifluoromethyl)benzylamino)-3-hydroxy-1-phenylbutan-2-yl)-N3-methyl-N3-((4-methylthiazol-2-yl)methyl)isophthalamide] | –
16 | < 1000 | < 300 | – | COc1cc(CNC[C@@H](O)[C@H](Cc2ccccc2)NC(=O)c2cccc(C(=O)N(C)Cc3nc(C)cs3)c2)cc(N(C)C)c1 [Compound 224, N1-((2S,3R)-4-(3-(dimethylamino)-5-methoxybenzylamino)-3-hydroxy-1-phenylbutan-2-yl)-N3-methyl-N3-((4-methylthiazol-2-yl)methyl)isophthalamide] | –
17 | < 1000 | < 300 | – | COc1cc(CNC[C@@H](O)[C@H](Cc2ccccc2)NC(=O)c2cccc(C(=O)N(C)Cc3nc(C)cs3)c2)nc(N(C)C)n1 [Compound 212, N1-((2S,3R)-4-((2-(dimethylamino)-6-methoxypyrimidin-4-yl)methylamino)-3-hydroxy-1-phenylbutan-2-yl)-N3-methyl-N3-((4-methylthiazol-2-yl)methyl)isophthalamide] | –
18 | < 1000 | – | < 300 | Cc1csc(CN(C)C(=O)c2cccc(C(=O)N[C@@H](Cc3ccccc3)[C@H](O)CNCc3cncc(C4CC4)c3)c2)n1 [Compound 30, N1-((2S,3R)-4-((5-cyclopropylpyridin-3-yl)methylamino)-3-hydroxy-1-phenylbutan-2-yl)-N3-methyl-N3-((4-methylthiazol-2-yl)methyl)isophthalamide] | –
19 | < 1000 | – | < 300 | COc1cccc(CNC[C@@H](O)[C@H](Cc2ccccc2)NC(=O)c2cc(C(N)=O)cc(C(=O)N(C)Cc3nc(C)cs3)c2)c1 [Compound 103, N1-((2S,3R)-3-hydroxy-4-(3-methoxybenzylamino)-1-phenylbutan-2-yl)-N3-methyl-N3-((4-methylthiazol-2-yl)methyl)benzene-1,3,5-tricarboxamide] | –
20 | < 1000 | – | < 300 | COc1cccc([C@@H](C)NC[C@@H](O)[C@H](Cc2ccccc2)NC(=O)c2cc(C(=O)N[C@H](C)c3ccccc3)cc(N(C)S(C)(=O)=O)c2)c1 [Compound 201, N1-((2S,3R)-3-hydroxy-4-((R)-1-(3-methoxyphenyl)ethylamino)-1-phenylbutan-2-yl)-5-(N-methylmethylsulfonamido)-N3-((R)-1-phenylethyl)isophthalamide] | –
21 | < 1000 | < 300 | – | Cc1csc(CN(C)C(=O)c2cccc(C(=O)N[C@@H](Cc3ccccc3)[C@H](O)CNCc3cc(C#N)cc(C(F)(F)F)c3)c2)n1 [Compound 266, N1-((2S,3R)-4-(3-cyano-5-(trifluoromethyl)benzylamino)-3-hydroxy-1-phenylbutan-2-yl)-N3-methyl-N3-((4-methylthiazol-2-yl)methyl)isophthalamide] | –
22 | < 1000 | < 300 | – | Cc1csc(CN(C)C(=O)c2cccc(C(=O)N[C@@H](Cc3ccccc3)[C@H](O)CNCc3cc(Cl)cc(Cl)c3)c2)n1 [Compound 236, N1-((2S,3R)-4-(3,5-dichlorobenzylamino)-3-hydroxy-1-phenylbutan-2-yl)-N3-methyl-N3-((4-methylthiazol-2-yl)methyl)isophthalamide] | –

Source: patent publication US20100286145A1, “ISOPHTHALAMIDE DERIVATIVES INHIBITING BETA-SECRETASE ACTIVITY” (CoMentis, Inc., priority 2007, published 2010)
